Test results from ChEMBL document CHEMBL3632515, “Discovery of an L-alanine ester prodrug of the Hsp90 inhibitor, MPC-3100” (Bioorg Med Chem Lett, 2015).
In brackets after ≈: the same amount, converted by molar mass. Activity calls are given as the source filed them. The calls are words filed in the database; no cut-off is given here.

Tests used:
[1] = Kinetic solubility of the compound at pH 6.5; type: physicochemical; conditions: buffer, read-out: Kinetic_solubility
NCI-N87 [2] = test: Antitumor activity against human NCI-N87 cells xenografted in mouse assessed as tumor growth inhibition at 200 mg/kg, po relative to control; type: functional; conditions: read-out: TGI
[3] = AUC in mouse at 200 mg/kg, po administered with 2% CMC by LC-ESI-MS/MS analysis; type: ADME, organism-based; conditions: in vivo
[4] = Cmax in mouse at 200 mg/kg, po administered with 2% CMC by LC-ESI-MS/MS analysis; type: ADME, organism-based; parameters: dose 200 mg/kg, route oral; conditions: in vivo
Plasma [5] = test: Drug level in mouse plasma treated with MPC-0767; type: ADME, cell-free
Liver [6] = test: Drug level in mouse liver microsomes treated with MPC-0767; type: ADME
[7] = Aqueous solubility of the compound in simulated intestinal fluid at pH 6.8; type: physicochemical
[8] = Tmax in mouse at 200 mg/kg, po administered with 2% CMC by LC-ESI-MS/MS analysis; type: ADME, organism-based; conditions: in vivo
[9] = Drug level in simulated intestinal fluid treated with MPC-0767 at pH 6.8 in presence of pancreatin; type: physicochemical; conditions: simulated gi fluid
[10] = Oral bioavailability in mouse at 200 mg/kg administered with 40% captisol by LC-ESI-MS/MS analysis; type: ADME, organism-based; conditions: in vivo
[11] = Oral bioavailability in mouse at 200 mg/kg administered with 2% CMC by LC-ESI-MS/MS analysis; type: ADME, organism-based; conditions: in vivo
[12] = Apparent permeability of the compound at pH 6.2; type: physicochemical; conditions: not told
[13] = Tmax in mouse at 200 mg/kg, po administered with 40% captisol by LC-ESI-MS/MS analysis; type: ADME, organism-based; conditions: in vivo
Liver microsome [14] = test: Drug level in human liver microsomes treated with MPC-0767; type: ADME
[15] = AUC in mouse at 200 mg/kg, po administered with 40% captisol by LC-ESI-MS/MS analysis; type: ADME, organism-based; conditions: in vivo
[16] = Cmax in mouse at 200 mg/kg, po administered with 40% captisol by LC-ESI-MS/MS analysis; type: ADME, organism-based; parameters: dose 200 mg/kg, route oral; conditions: in vivo
NCI-N87 [17] = test: Antitumor activity against human NCI-N87 cells xenografted in mouse assessed as tumor growth inhibition at 265 mg/kg, po; type: functional, organism-based
NCI-N87 [18] = test: Antitumor activity against human NCI-N87 cells xenografted in mouse assessed as tumor regression; type: functional
Mus musculus [19] = test: Oral bioavailability in mouse assessed as MPC-3100; type: ADME, organism-based; conditions: in vivo
[20] = Aqueous solubility of the compound in simulated intestinal fluid at pH 6.5 to 6.8; type: physicochemical
[21] = Toxicity in po dosed nu+/- mouse; type: organism-based; conditions: in vivo
Mus musculus [22] = test: Toxicity in nu+/- mouse assessed as mortality at 286 mg/kg, po; type: organism-based; conditions: in vivo
Mus musculus [23] = test: AUC in mouse assessed as MPC-3100 at 265 mg/kg, po administered with 2% CMC by LC-ESI-MS/MS analysis; type: ADME, organism-based; conditions: in vivo
Mus musculus [24] = test: Oral bioavailability in mouse assessed as MPC-3100 at 265 mg/kg administered with 2% CMC by LC-ESI-MS/MS analysis; type: ADME, organism-based; conditions: in vivo
[25] = Half life in simulated intestinal fluid at pH 6.8; type: ADME
[26] = Half life in phosphate buffer at pH 7.4; type: physicochemical
Liver microsome [27] = test: Prodrug conversion in human liver microsomes assessed as formation of MPC-3100; type: ADME
[28] = Half life in simulated intestinal fluid at pH 6.8 in presence of pancreatin; type: ADME; conditions: simulated intestinal fluid with pancreatin
[29] = Half life in simulated gastric fluid at pH 1.2 in presence of pepsin; type: ADME; conditions: simulated gastric fluid with pepsin
[30] = Half life in monkey plasma; type: ADME, cell-free, Macaca mulatta; conditions: rhesus monkey
Mus musculus [31] = test: Cmax in mouse assessed as MPC-3100 at 265 mg/kg, po administered with 2% CMC by LC-ESI-MS/MS analysis; type: ADME, organism-based; parameters: dose 265 mg/kg, route oral; conditions: in vivo
[32] = Half life in human plasma; type: ADME, cell-free
Mus musculus [33] = test: Tmax in mouse assessed as MPC-3100 at 265 mg/kg, po administered with 2% CMC by LC-ESI-MS/MS analysis; type: ADME, organism-based; conditions: in vivo
[34] = Half life in simulated gastric fluid at pH 1.2; type: ADME
[35] = Half life in mouse plasma; type: ADME, cell-free
Mus musculus [36] = test: Toxicity in mouse xenografted with human NCI-N87 cells assessed as body weight loss at 265 mg/kg, po; type: organism-based; conditions: in vivo
[37] = Half life in human liver microsomes in absence of NADPH; type: ADME
Liver [38] = test: Prodrug conversion in mouse liver microsomes assessed as formation of MPC-3100; type: ADME
[39] = Half life in mouse liver microsomes in absence of NADPH; type: ADME
Plasma [40] = test: Prodrug conversion in mouse plasma assessed as formation of MPC-3100; type: ADME, cell-free
[41] = Half life in human liver microsomes in presence of NADPH; type: ADME
[42] = Half life in mouse liver microsomes in presence of NADPH; type: ADME

C[C@H](O)C(=O)N1CCC(CCn2c(Sc3cc4c(cc3Br)OCO4)nc3c(N)ncnc32)CC1
solubility kinetic [1]: 10.2 µg/mL (≈ 18.6 µM) | inhibition in vivo at 200 mg/kg (NCI-N87 [2]): 46% | AUC [3]: 35100 ng·h/mL | Cmax [4]: 7370 ng/mL | Drug metabolism (Plasma [5]): metabolite_detected | Drug metabolism (Liver [6]): metabolite_detected | solubility [7]: 7.5 µg/mL (≈ 13.6 µM) | Tmax [8]: 18 min | Drug metabolism [9]: metabolite_detected | bioavailability [10]: 67% | bioavailability [11]: 21% | Papp [12]: 420 ×10⁻⁶ cm/s | Tmax [13]: 1 h | Drug metabolism (Liver microsome [14]): metabolite_detected | AUC [15]: 113 µg·h/mL | Cmax [16]: 24900 ng/mL

C[C@H](N)C(=O)O[C@@H](C)C(=O)N1CCC(CCn2c(Sc3cc4c(cc3Br)OCO4)nc3c(N)ncnc32)CC1
TGI (NCI-N87 [17]): Active

C[C@H](OC(=O)[C@@H](N)CCCCN)C(=O)N1CCC(CCn2c(Sc3cc4c(cc3Br)OCO4)nc3c(N)ncnc32)CC1
TGI (NCI-N87 [18]): >40% | F (Mus musculus [19]): > 40% | solubility [20]: > 1000 µg/mL

C[C@H](N)C(=O)O[C@@H](C)C(=O)N1CCC(CCn2c(Sc3cc4c(cc3Br)OCO4)nc3c(N)ncnc32)CC1.Cl.Cl
MTD [21]: 252 mg/kg

C[C@H](OC(=O)[C@@H](N)CCCCN)C(=O)N1CCC(CCn2c(Sc3cc4c(cc3Br)OCO4)nc3c(N)ncnc32)CC1.Cl.Cl.Cl
Activity (Mus musculus [22]): Toxic

CS(=O)(=O)O.C[C@H](N)C(=O)O[C@@H](C)C(=O)N1CCC(CCn2c(Sc3cc4c(cc3Br)OCO4)nc3c(N)ncnc32)CC1
solubility kinetic [1]: 536 µg/mL | AUC (Mus musculus [23]): 94194 ng·h/mL | F (Mus musculus [24]): 56% | half-life [25]: 173 min | half-life [26]: 145 min | Drug metabolism (Liver microsome [27]): metabolite_detected | half-life [28]: 22 min | half-life [29]: > 240 min | half-life [30]: 300 min | Cmax (Mus musculus [31]): 21562 ng/mL | half-life [32]: 149 min | Tmax (Mus musculus [33]): 1 h | half-life [34]: > 240 min | Papp [12]: 2.7 ×10⁻⁶ cm/s | half-life [35]: < 2 min | Activity (Mus musculus [36]): Non-toxic | half-life [37]: 2 min | Drug metabolism (Liver [38]): metabolite_detected | solubility [20]: > 1000 µg/mL | half-life [39]: < 2 min | Drug metabolism (Plasma [40]): metabolite_detected | half-life [41]: 2 min | half-life [42]: < 2 min
